Columns and labels:
[1] = biological target: T1, TACE (catalytic domain of the recombinant TACE protein) (Homo sapiens, UniProt P78536); test: TACE FRET assay using TACE Cat; type: biochemical; conditions: FRET, pro-TNF-α substrate peptide; read-out: TACE IC50
T1 construct: The catalytic domain of the recombinant TACE protein was expressed and purified; made in house
Procedure: The procedure is essentially as described in Jin, G. et al., Analytical Biochemistry (2002) 302, 269-275, incorporated by reference herein in its entirety. […] K is the IC50. Generally, n and B are floated, noting that n (hill slope) should be close to 1 and B (background offset) to 0.
Pro-TNF-α substrate peptide Abz-[…]-Dpa (AnaSpec, San Jose, Calif., WARC-1) was prepared as a 2 mM stock solution in the TACE assay buffer (50 mM Tris-HCI, pH 7.4, 25 mM NaCl, 4% Glycerol, 0.005% Brij 35). The catalytic domain of the recombinant TACE protein was expressed and purified. The TACE protein (1 ug/ml) was pretreated with the inhibitors at various concentrations for 10 min at room temperature. The reaction was initiated by the addition of the substrate peptide. The increase in fluorescence was monitored at an Excitation of 320 nm and an Emission of 420 nm over a period of 10 min. The initial rate (slope) of the reaction was determined using a fluorescence plate reader (Molecular Devices, Spectra Max Gemini XS).

[2] = biological target: MMP-13 (Homo sapiens, UniProt P45452); test: In-vitro fluorescence assay of MMP-13 activity; type: biochemical
Procedure: See Knight, C. […] […].
The method was essentially the same as for the determination of MMP-1 activity, described above, except that the final concentration of purified MMP in the assay was 0.5 nM, prepared by diluting with the assay buffer.

[3] = tested on: TNF-α secretion in Raw 264.7 cells; test: Cell-based assay for inhibition of TNF-α secretion in Raw cells; conditions: Mus musculus, RAW264.7, LPS 100 ng/ml, 4 hr
Procedure: The basic measurement of the assay is the percentage of inhibition of TNF-α secretion and the IC50 determination by a fitting with the model-39 of LSW data analysis tool. […] Cells are split twice a week by scraping and 1 to 10 or 20 dilutions. For testing compounds, cells are cultured to confluence and are seeded the day before the experiment in 24 well culture dishes at 0.5 to 1 million/ml well. On the next morning, the medium from the overnight culture is replaced with the fresh growth medium. The compounds are added at various concentration at the 0.2% of final DMSO concentrations (10 μl of a 20% DMSO solution containing testing compounds is added to each well). The cells are pre-incubated with compounds for 1 hr. LPS (Sigma, L2262) is added to cells at a final concentration of 100 ng/ml (10 μl of a […] LPS solution freshly diluted from a 1 mg/ml LPS stock solution in PBS is added to each well) and cells are further incubated for 4 hr at 37° C. 1 ml of the supernatant was collected, cells are spun down and the supernatants are frozen at −80° C. until use. The TNF-α and other proinflammatory cytokines were detected by an ELISA assay according to the manufacturer's instructions (Biosource International, Inc., Camarillo, Calif. (For IL-1b measurement in Raw cells, one round of freeze and thaw of the cells was required).

[4] = tested on: LPS-induced TNF-α secretion in human whole blood; test: Human whole blood assay for LPS-induced TNF-α secretion; type: cell-based; conditions: Homo sapiens, LPS 100 ng/ml, read-out: TNF Secretion HWB IC50
Procedure: procedure is essentially as described in Newton, R. C., et al., (2001) Ann Rheum […]32, incorporated by reference herein in its entirety. The basic measurement of the assay is the percentage of inhibition of TNF-α secretion and the IC50 determination by a […] model-39 of LSW data analysis tool. 350 μl of fresh human blood drawn from healthy volunteers were pre-incubated with compounds for one hour at the various concentrations at 37° C. with turning generally, the final DMSO concentrations should be kept below 0.2%. At the end of cubation, LPS (Sigma, L2262) was added to the blood at 100 ng/ml and the samples were further incubated for 4 hours or overnight at 37° C. with constant rotation. At the end of the incubation period, 650 μl of serum-free medium was added to the blood samples and the samples were centrifuged at 1500 rpm for 15 minutes. 500 μl of supernate was collected and frozen at -80° C. The TNF-α and other proinflammatory cytokines were detected by ELISA assay according to the manufacturer's instruction (Biosource International, Inc., Camarillo, Calif.).

[5] = biological target: T2, recombinant human MMP-2 (Homo sapiens, UniProt P08253); test: In-vitro fluorescence assay of MMP-2 activity; type: biochemical
T2 sequence (P08253 110-660): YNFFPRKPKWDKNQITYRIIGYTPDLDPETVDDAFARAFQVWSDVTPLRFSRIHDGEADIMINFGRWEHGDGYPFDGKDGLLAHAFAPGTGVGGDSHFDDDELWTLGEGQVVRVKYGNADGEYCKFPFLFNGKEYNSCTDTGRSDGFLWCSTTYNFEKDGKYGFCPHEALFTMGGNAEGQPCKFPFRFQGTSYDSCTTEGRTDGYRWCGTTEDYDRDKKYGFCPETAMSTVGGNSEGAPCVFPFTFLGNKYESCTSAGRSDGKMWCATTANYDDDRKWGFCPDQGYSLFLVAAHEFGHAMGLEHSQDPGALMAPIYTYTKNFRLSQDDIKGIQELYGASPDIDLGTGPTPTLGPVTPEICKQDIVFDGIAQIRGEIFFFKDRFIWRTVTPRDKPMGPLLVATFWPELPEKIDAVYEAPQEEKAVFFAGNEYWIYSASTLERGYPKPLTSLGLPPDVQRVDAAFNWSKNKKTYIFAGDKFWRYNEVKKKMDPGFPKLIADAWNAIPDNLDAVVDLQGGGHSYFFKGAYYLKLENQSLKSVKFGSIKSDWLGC

T1 sequence (P78536 223-474 limits assumed): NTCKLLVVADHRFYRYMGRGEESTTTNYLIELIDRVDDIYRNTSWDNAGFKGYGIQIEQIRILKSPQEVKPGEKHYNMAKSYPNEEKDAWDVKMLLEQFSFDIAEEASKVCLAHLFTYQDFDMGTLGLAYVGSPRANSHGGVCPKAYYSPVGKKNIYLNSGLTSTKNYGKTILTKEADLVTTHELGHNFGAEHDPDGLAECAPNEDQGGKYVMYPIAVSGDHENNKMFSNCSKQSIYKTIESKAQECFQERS

SMILES	IC50 [1]	IC50 [2]	IC50 [3]	IC50 [4]	IC50 [5]
CC(=O)N1CC[C@@H](NS(=O)(=O)c2ccc(OCc3cc(C)nc4ccccc34)cc2)[C@@](C)(C(=O)NO)C1 [Example 47, (3S,4R)-1-acetyl-N-hydroxy-3-methyl-4-[({4-[(2-methylquinolin-4-yl)methoxy]phenyl}sulfonyl)amino]piperidine-3-carboxamide]	6.4 nM	> 16700 nM	> 1000 nM	> 50000 nM	> 16700 nM
Cc1cc(COc2ccc(S(=O)(=O)N[C@@H]3CCC[C@]3(C)C(=O)NO)cc2)c2ccccc2n1 [Example 55, (1S,2R)-N-hydroxy-1-methyl-2-[({4-[(2-methylquinolin4-yl)methoxy]phenyl}sulfonyl)amino]cyclopentanecarboxamide]	< 0.6 nM	> 16700 nM	270 nM	5900 nM	> 16700 nM
Cc1cc(COc2ccc(S(=O)(=O)N[C@@H]3CCC[C@]3(F)C(=O)NO)cc2)c2ccccc2n1 [Example 54, (1R,2R)-1-fluoro-N-hydroxy-2-[((4-[(2-methylquinolin-4-yl)methoxy]phenyl}sulfonyl)amino]cyclopentanecarboxamide]	< 0.6 nM	> 10000 nM	19 nM	2300 nM	> 16700 nM
Cc1cc(COc2ccc(S(=O)(=O)N[C@@H]3CCC[C@]3(O)C(=O)NO)cc2)c2ccccc2n1 [Example 53, (1R,2R)-N,1-dihydroxy-2-[({4-[(2-methylquinolin-4-yl)methoxy]phenyl}sulfonyl)amino]cyclopentanecarboxamide]	0.4 nM	> 16700 nM	82 nM	3600 nM	> 16700 nM
CC(=O)N1CCC(NS(=O)(=O)c2ccc(OCc3cc(C)nc4ccccc34)cc2)C(C(=O)NO)C1 (mixture of isomers) [Example 31, 1-Acetyl-4-[4-(2-methyl-quinolin-4-ylmethoxy)-benzenesulfonylamino]-piperidine-3-carboxylic acid hydroxyamide]	0.9 nM	6630 nM	20 nM	50 nM	> 10000 nM
Cc1cc(COc2ccc(S(=O)(=O)N[C@@H]3CCOC[C@]3(C)C(=O)NO)cc2)c2ccccc2n1 [Example 44, (3R,4R)-N-hydroxy-3-methyl-4-[({4-[(2-methylquinolin-4-yl)methoxy]phenyl}sulfonyl)amino]tetrahydro-2H-pyran-3-carboxamide]	0.5 nM	> 16700 nM	1670 nM	46000 nM	> 16700 nM
CC[C@]1(C(=O)NO)CCC[C@H]1N(C)S(=O)(=O)c1ccc(OCc2cc(C)nc3ccccc23)cc1 [Example 57, (1S,2R)-N-hydroxy-1-ethyl-2-[methyl({4-[(2-methylquinolin-4-yl)methoxy]phenyl}sulfonyl)amino]cyclopentanecarboxamide]	9.6 nM	> 10000 nM	> 1000 nM	> 50000 nM	> 10000 nM
C#CCN1CC[C@@H](NS(=O)(=O)c2ccc(OCc3cc(C)nc4ccccc34)cc2)[C@@](C)(C(=O)NO)C1 [Example 49, (3S,4R)-N-hydroxy-3-methyl-4-[({4-[(2-methylquinolin-4-yl)methoxy]phenyl}sulfonyl)amino]-1-prop-2-yn-1-ylpiperidine-3-carboxamide]	19 nM	> 16700 nM	> 1000 nM	> 50000 nM	> 16700 nM
Cc1cc(COc2ccc(S(=O)(=O)N[C@H]3CCN(C(=O)NC(C)(C)C)C[C@H]3C(=O)NO)cc2)c2ccccc2n1 [Example 30, (3S,4R)-4-[4-(2-Methyl-quinolin-4-ylmethoxy)-benzenesulfonylamino]-piperidine-1,3-dicarboxylic acid 1-tert-butylamide 3-hydroxyamide]	< 0.6 nM	9090 nM	30 nM	250 nM	> 10000 nM
Cc1cc(COc2ccc(S(=O)(=O)N[C@@H]3CCN(C(C)C)C[C@]3(C)C(=O)NO)cc2)c2ccccc2n1 [Example 48, (3S,4R)-N-hydroxy-1-isopropyl-3-methyl-4-[({4-[(2-methylquinolin-4-yl)methoxy]phenyl}sulfonyl)amino]piperidine-3-carboxamide]	211 nM	> 16700 nM	> 1000 nM	> 50000 nM	> 16700 nM
C#CCN1C[C@H](C(=O)NO)[C@H](NS(=O)(=O)c2ccc(OCc3cc(C)nc4ccccc34)cc2)C1 (relative stereo) [Example 18, cis-N-Hydroxy-4-[({4-[(2-methylquinolin-4-yl)methoxy]phenyl}sulfonyl)amino]-1-prop-2-yn-1-ylpyrrolidine-3-carboxamide]	0.7 nM	> 10000 nM	90 nM	1000 nM	> 10000 nM
Cc1cc(COc2ccc(S(=O)(=O)N[C@@H]3CCOC[C@@]3(C)C(=O)NO)cc2)c2ccccc2n1 [Example 45, (3S,4R)-N-hydroxy-3-methyl-4-[({4-[(2-methylquinolin-4-yl)methoxy]phenyl}sulfonyl)amino]tetrahydro-2H-pyran-3-carboxamide]	6.2 nM	> 16700 nM	1920 nM	> 50000 nM	> 16700 nM
CC(=O)N1C[C@H](C(=O)NO)[C@H](NS(=O)(=O)c2ccc(OCc3cc(C)nc4ccccc34)cc2)C1 (relative stereo) [Example 19, cis-1-acetyl-N-Hydroxy-4-[({4-[(2-methylquinolin-4-yl)methoxy]phenyl}sulfonyl)amino]pyrrolidine-3-carboxamide]	< 0.6 nM	≥ 10000 nM	20 nM	200 nM	> 10000 nM
Cc1cc(COc2ccc(S(=O)(=O)N[C@@H]3CCN(C=O)C[C@@H]3C(=O)NO)cc2)c2ccccc2n1 [Example 29, (3S,4R)-1-Formyl-4-[4-(2-methyl-quinolin-4-ylmethoxy)-benzenesulfonylamino]-piperidine-3-carboxylic acid hydroxyamide]	0.8 nM	13200 nM	7 nM	86 nM	> 16700 nM

Source: patent publication US7595327B2, “Beta-sulfonamide hydroxamic acid inhibitors of tace/matrix metalloproteinase” (priority 2005, dated 2009)
